Where two headings read alike, the source gives them in different places.
How the values were obtained:
[1] = tested on: C3H10T1/2 cells; experiment: C3H assay: differentiation of C3H10T1/2 cells by mSHH, measurement of alkaline phosphatase; format: cell-based, mouse; conditions: Mus musculus, C3H 10T1/2
[2] = target: T1, SMO (Homo sapiens, UniProt Q99835); experiment: Smoothened (SMO) binding fluorescence polarisation assay (BODIPY-cyclopamine competition); conditions: SMO binding FP assay versus C3H10T1/2 cellular assay
T1 construct: expressed in transfected cells; host or cells: HEK293
Procedure: Standard Protocol for Smoothened (SMO) Binding Fluorescence Polarisation Assay.
The assay measures the ability of the test compounds to compete with a fluorescently-labelled version of the known ligand, cyclopamine, for binding to SMO. The fluorescent tag used is BODIPY (boron dipyrromethene).
An aliquot of a membrane preparation from a SMO-over-expressing HEK293 cell line is diluted to protein concentration of 0.117 mg/ml in assay buffer (25 mM HEPES, 2 mM EDTA, 0.05% γ-globulin, 0.01% pluronic acid pH7.4, plus protease Inhibitor cocktail). 8.5 μl of the membrane suspension is added to each well of a black, low volume 384 well microtitre plate.
Test compounds are added in a seven point dilution range to the wells containing the membrane preparation. The final DMSO solvent concentration in the wells is maintained at 0.3%. 6.5 μl of a 6.9 nM BODIPY-cyclopamine solution is added to each of the wells (final assay concentration 3 nM).
The plate is sealed and stored in the dark at room temperature for 24 hours prior to measurement of the fluorescence polarisation signal on a Perkin Elmer Envision multi-label reader.
Table 4 below details the ratio of SMO binding compared to the potency in the C3H10T1/2 cellular assay. The small ratio between SMO binding and potency for vismodegib is considered to be reflective of the fact vismodegib acts mainly through inhibition of the SMO protein. The larger ratios for the compound of the invention are considered to be reflective of alternate actions outside of direct SMO inhibition.

[3] = C3H10T1/2 cells stimulated with mSHH for 72 hours, alkaline phosphatase activity, read-out: IC50 Ranges

T1 sequence (Q99835 28-787): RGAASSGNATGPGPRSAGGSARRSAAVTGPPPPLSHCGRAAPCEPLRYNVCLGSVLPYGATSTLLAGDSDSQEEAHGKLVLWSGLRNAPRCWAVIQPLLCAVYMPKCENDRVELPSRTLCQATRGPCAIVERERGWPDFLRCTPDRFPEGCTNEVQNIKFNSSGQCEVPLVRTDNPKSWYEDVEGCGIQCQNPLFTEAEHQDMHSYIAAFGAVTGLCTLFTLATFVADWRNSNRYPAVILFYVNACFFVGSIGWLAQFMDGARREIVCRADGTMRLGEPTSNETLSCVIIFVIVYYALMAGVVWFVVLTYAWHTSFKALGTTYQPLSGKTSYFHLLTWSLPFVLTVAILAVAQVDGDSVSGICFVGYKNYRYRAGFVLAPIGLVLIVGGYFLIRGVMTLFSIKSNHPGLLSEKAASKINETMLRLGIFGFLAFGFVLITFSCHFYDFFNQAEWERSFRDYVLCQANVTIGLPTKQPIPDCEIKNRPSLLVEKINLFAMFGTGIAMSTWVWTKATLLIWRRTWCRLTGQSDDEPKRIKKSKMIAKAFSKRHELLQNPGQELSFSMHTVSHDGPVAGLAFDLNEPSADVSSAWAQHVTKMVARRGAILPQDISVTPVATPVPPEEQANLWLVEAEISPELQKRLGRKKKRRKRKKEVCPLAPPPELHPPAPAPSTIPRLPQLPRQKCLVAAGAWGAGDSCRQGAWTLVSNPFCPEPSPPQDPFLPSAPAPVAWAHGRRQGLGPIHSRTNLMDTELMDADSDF

SMILES	IC50 [1, 3]	Ratio of potency in SMO binding assay to potency in C3H10T1/2 cellular assay [2]	IC50 ([1]; reference compounds run in the C3H assay, read-out: mean IC50)
COC(=O)c1cnc2[nH]cc(C3CCN(S(=O)(=O)C4CCN(C(=O)OC(C)(C)C)CC4)CC3)c2c1 [Compound 16, methyl 3-[1-[1-[(2-methylpropan-2-yl)oxycarbonyl]piperidin-4-yl]sulfonylpiper-idin-4-yl]-1H-pyrrolo[2,3-b]pyridine-5-carboxylate]	100 to 1000 nM	>78	
CC1(C)COCC(C)(C)N1C(=O)N1CC(S(=O)(=O)N2CCC(c3cnc4occc4c3)CC2)C1 [Compound 34, [3-(4-furo[2,3-b]pyridin-5-ylpiperidin-1-yl)sulfonylaze-tidin-1-yl]-(3,3,5,5-tetramethylmor-pholin-4-yl)methanone]	10 to 100 nM	21	
O=C(OCC1CCCO1)N1CC(S(=O)(=O)N2CCC(c3c[nH]c4ncccc34)CC2)C1 (centres unmarked) [Compound 67, (oxolan-2-yl)methyl 3-[4-(1H-pyrrolo [2,3-b]pyridin-3-yl)piperidin-1-yl]sulfonylaze-tidine-1-carboxylate]	10 to 100 nM	45	
CC(C)OC(=O)N1CC(S(=O)(=O)N2CCC(c3c[nH]c4ncccc34)CC2)C1 [Compound 97, propan-2-yl 3-[4-(1H-pyrrolo[2,3-b]pyridin-3-yl)piperidin-1-yl]sulfonylaze-tidine-1-carboxylate]	100 to 1000 nM	22	
CN(C)c1ccc(C2CCN(S(=O)(=O)C3CCN(C(=O)OC(C)(C)C)CC3)CC2)cc1 [Compound 112]	100 to 1000 nM	42	
COc1cnc2[nH]cc(C3CCN(S(=O)(=O)C4CCN(C(=O)OC(C)(C)C)CC4)CC3)c2c1 [Compound 115, tert-butyl 4-[4-(5-methoxy-1H-pyrrolo[2,3-b]pyridin-3-yl)piperidin-1-yl]sulfonylpiper-idine-1-carboxylate]	100 to 1000 nM	20	
Cn1cc(-c2cnc3[nH]cc(C4CCN(S(=O)(=O)C5CN(C(=O)OC(C)(C)C)C5)CC4)c3c2)cn1 [Compound 122, tert-butyl 3-[4-[5-(1-methylpyrazol-4-yl)-1H-pyrrolo [2,3-b]pyridin-3-yl]piperidin-1-yl]sulfonylaze-tidine-1-carboxylate]	100 to 1000 nM	>55	
CC(C)(C)OC(=O)N1CC(S(=O)(=O)N2CCC(c3coc4cccnc34)CC2)C1 [Compound 131, tert-Butyl 3-[(4-furo[3,2-b]pyridin-3-yl-1-piperidyl)sulfonyl]azetidine-1-carboxylate]	10 to 100 nM	84	
O=C(OC[C@H]1CCCO1)N1CC(S(=O)(=O)N2CCC(c3c[nH]c4ncccc34)CC2)C1 [Compound 162, [(2R)-oxolan-2-yl]methyl 3-[4-(1H-pyrrolo[2,3-b]pyridin-3-yl)piperidin-1-yl]sulfonylaze-tidine-1-carboxylate]	10 to 100 nM	20	
CC(C)(C)OC(=O)N1CC(S(=O)(=O)N2CC=C(c3c[nH]c4ncccc34)CC2)C1 [Compound 228, tert-butyl 3-[[4-(1H-pyrrolo[2,3-b]pyridin-3-yl)-3,6-dihydro-2H-pyridin-1-yl]sulfonyl] azetidine-1-carboxylate]	100 to 1000 nM	20	
Cc1ccc(S(=O)(=O)n2ccc3c(C4=CCN(S(=O)(=O)C5CCN(C(=O)OC(C)(C)C)CC5)CC4)ncnc32)cc1 [Compound 239, tert-butyl 4-[[4-[7-(4-methylphenyl)sulfonylpyrrolo[2,3-d]pyrimidin-4-yl]-3,6-dihydro-2H-pyridin-1-yl]sulfonyl] piperidine-1-carboxylate]	100 to 1000 nM	>37	
CC1(C)COCN1C(=O)N1CC(S(=O)(=O)N2CCC(c3c[nH]c4ncccc34)CC2)C1 [Compound 256, (4,4-dimethyl-1,3-oxazolidin-3-yl)-[3-[4-(1H-pyrrolo[2,3-b]pyridin-3-yl)piperidin-1-yl]sulfonylaze-tidin-1-yl]methanone]	10 to 100 nM	2.7	
COC(=O)[C@H]1C[C@H](S(=O)(=O)N2CCC(c3c[nH]c4ncccc34)CC2)C1 [Compound 274, methyl trans-3-[4-(1H-pyrrolo[2,3-b]pyridin-3-yl)piperidin-1-yl]sulfonylcycl obutane-1-carboxylate]	100 to 1000 nM	>10	
C[C@@H]1CN(C(=O)N2CC(S(=O)(=O)N3CCC(c4ccc(Cl)cc4)CC3)C2)C[C@H](C)O1 [Compound 393, [3-[4-(4-chlorophenyl)piperidin-1-yl]sulfonylaze-tidin-1-yl]-[(2R,6S)-2,6-dimethylmorpholin-4-yl]methanone]	10 to 100 nM		
Cc1cc(F)ccc1NC(=O)N1CC(S(=O)(=O)N2CCC(c3c[nH]c4ncccc34)CC2)C1 [Compound 394, N-(4-fluoro-2-methylphenyl)-3-[4-(1H-pyrrolo[2,3-b]pyridin-3-yl)piperidin-1-yl]sulfonylazet idine-1-carboxamide]	10 to 100 nM		
CC(C)(O)CC(=O)N1CC(S(=O)(=O)N2CCC(c3coc4cccnc34)CC2)C1 [Compound 398, 1-[3-(4-furo[3,2-b]pyridin-3-ylpiperidin-1-yl)sulfonylaze-tidin-1-yl]-3-hydroxy-3-methylbutan-1-one]	100 to 1000 nM		
Cc1cc(F)ccc1N(C)C(=O)N1CC(S(=O)(=O)N2CCC(c3coc4cccnc34)CC2)C1 [Compound 399, N-(4-fluoro-2-methyl-phenyl)-3-[(4-furo[3,2-b]pyridin-3-yl-1-piperidyl)sulfonyl]-N-methyl-azetidine-1-carboxamide]	100 to 1000 nM		
Cc1ccc(F)cc1NC(=O)N1CC(S(=O)(=O)N2CCC(c3ccc(Cl)cc3)CC2)C1 [Compound 400, 3-[4-(4-chlorophenyl)piperidin-1-yl]sulfonyl-N-(5-fluoro-2-methylphenyl) azetidine-1-carboxamide]	100 to 1000 nM		
O=C(N1CCOCC1)N1CC(S(=O)(=O)N2CCC(c3ccc(Cl)cc3)CC2)C1 [Compound 402, [3-[4-(4-chlorophenyl)piperidin-1-yl]sulfonylaze-tidin-1-yl]-morpholin-4-ylmethanone]	100 to 1000 nM		
O=C(Nc1c(F)cccc1F)N1CC(S(=O)(=O)N2CCC(c3coc4cccnc34)CC2)C1 [Compound 403, N-(2,6-difluorophenyl)-3-(4-furo[3,2-b]pyridin-3-ylpiperidin-1-yl)sulfonylaze-tidine-1-carboxamide]	10 to 100 nM		
CC(C)(C(=O)N1CC(S(=O)(=O)N2CCC(c3coc4cccnc34)CC2)C1)C(F)(F)F [Compound 404, 3,3,3-trifluoro-1-[3-(4-furo[3,2-b]pyridin-3-ylpiperidin-1-yl)sulfonylaze-tidin-1-yl]-2,2-dimethylpropan-1-one]	10 to 100 nM		
C[C@](O)(CC(=O)N1CC(S(=O)(=O)N2CCC(c3c[nH]c4ncccc34)CC2)C1)C(F)(F)F [Compound 405, 4,4,4-trifluoro-3-hydroxy-3-methyl-1-[3-[4-(1H-pyrrolo[2,3-b]pyridin-3-yl)piperidin-1-yl]sulfonylaze-tidin-1-yl]butan-1-one]	10 to 100 nM		
C[C@](O)(CC(=O)N1CC(S(=O)(=O)N2CCC(c3coc4cccnc34)CC2)C1)C(F)(F)F [Compound 406, 4,4,4-trifluoro-1-[3-(4-furo[3,2-b]pyridin-3-ylpiperidin-1-yl)sulfonylaze-tidin-1-yl]-3-hydroxy-3-methylbutan-1-one]	10 to 100 nM		
CN1CCC[C@H]1C(=O)N1CC(S(=O)(=O)N2CCC(c3coc4cccnc34)CC2)C1 [Compound 407, [3-(4-furo[3,2-b]pyridin-3-ylpiperidin-1-yl)sulfonylazetidin-1-yl]-[(2S)-methylpyrroli-din-2-yl]methanone]	100 to 1000 nM		
CC(C)CC(=O)N1CC(S(=O)(=O)N2CCC(c3coc4cccnc34)CC2)C1 [Compound 408, 1-[3-(4-furo[3,2-b]pyridin-3-ylpiperidin-1-yl)sulfonylazetidin-1-yl]-3-methylbutan-1-one]	100 to 1000 nM		
Cc1ccccc1C1CCN(S(=O)(=O)C2CN(C(=O)OC(C)(C)C)C2)CC1 [Compound 409, tert-butyl 3-[4-(2-methylphenyl)piperidin-1-yl]sulfonylaze-tidine-1-carboxylate]	1000 to 10000 nM		
CC1(C)COCN1C(=O)N1CC(S(=O)(=O)N2CCC(c3ccc(Cl)cc3)CC2)C1 [Compound 411, [3-[4-(4-chlorophenyl)piperidin-1-yl]-sulfonylaze-tidin-1-yl]-(4,4-dimethyl-1,3-oxazolidin-3-yl)-methanone]	10 to 100 nM		
Cc1c(C(=O)Nc2ccc(N3C[C@@H](C)O[C@@H](C)C3)nc2)cccc1-c1ccc(OC(F)(F)F)cc1 [Sonidegib, reference compound]			11 nM
